ChEMBL document CHEMBL1152547, “Synthesis and evaluation of anticancer activity of 2-arylamino-6-trifluoromethyl-3-(hydrazonocarbonyl)pyridines” (Bioorg Med Chem, 2009)

Legend:
Format in all cases: functional
[1] = Cytotoxicity against human NCI60 cells assessed as cell growth at 10 uM after 48 hrs by sulforhodamine B assay; conditions: NCI60, 48 h, read-out: Activity
[2] = Cytotoxicity against human NCI60 cells after 48 hrs by sulforhodamine B assay; conditions: NCI60, 48 h; for TGI: read-out: pTGI (converted)
RXF 393 = assay: Cytotoxicity against human RXF393 cells after 48 hrs by sulforhodamine B assay; conditions: RXF 393, 48 h
CAKI-1 = assay: Cytotoxicity against human Caki1 cells after 48 hrs by sulforhodamine B assay; conditions: CAKI-1, 48 h
T47D = assay: Cytotoxicity against human T47D cells after 48 hrs by sulforhodamine B assay
786-0 = assay: Cytotoxicity against human 786-0 cells after 48 hrs by sulforhodamine B assay; conditions: 786-0, 48 h
HCT-116 = assay: Cytotoxicity against human HCT116 cells after 48 hrs by sulforhodamine B assay; conditions: HCT-116, 48 h
HOP-62 = assay: Cytotoxicity against human HOP62 cells after 48 hrs by sulforhodamine B assay; conditions: HOP-62, 48 h
SR = assay: Cytotoxicity against human SR cells after 48 hrs by sulforhodamine B assay
HOP-92 = assay: Cytotoxicity against human HOP92 cells after 48 hrs by sulforhodamine B assay; conditions: HOP-92, 48 h; for TGI: read-out: pTGI (converted)
A498 = assay: Cytotoxicity against human A498 cells after 48 hrs by sulforhodamine B assay; conditions: A498, 48 h; for CC50: read-out: pLC50 (the source's name) (converted); for TGI: read-out: pTGI (converted)
OVCAR-3 = assay: Cytotoxicity against human OVCAR-3 cells after 48 hrs by sulforhodamine B assay; conditions: OVCAR-3, 48 h; for CC50: read-out: pLC50 (the source's name) (converted); for TGI: read-out: pTGI (converted)
CCRF-CEM = assay: Cytotoxicity against human CCRF-CEM cells after 48 hrs by sulforhodamine B assay
[3] = read-out: pLC50 (the source's name) (converted)

COc1cc(/C=N/NC(=O)c2ccc(C(F)(F)F)nc2Nc2cc(Cl)ccc2OC)ccc1O
growth at 10 µM [1]: 42.1%

O=C(N/N=C/c1cccnc1)c1ccc(C(F)(F)F)nc1Nc1cccc(C(F)(F)F)c1
growth at 10 µM [1]: 70.3%

COc1cc(/C=N/NC(=O)c2ccc(C(F)(F)F)nc2Nc2cc(Cl)ccc2C)ccc1O
growth at 10 µM [1]: 47.2%

COc1cc(/C=N/NC(=O)c2ccc(C(F)(F)F)nc2Nc2ccc(Cl)cc2C)ccc1O
growth at 10 µM [1]: 26.8% | TGI [2]: 10.5 µM

Cc1ccc(Cl)cc1Nc1nc(C(F)(F)F)ccc1C(=O)N/N=C/c1cccc(O)c1
growth at 10 µM [1]: 90.1%

Cc1cc(Cl)ccc1Nc1nc(C(F)(F)F)ccc1C(=O)N/N=C/c1cccc(O)c1
GI50 (RXF 393): 0.195 µM | TGI (RXF 393; read-out: pTGI (converted)): 11.2 µM | growth at 10 µM [1]: 27.1% | GI50 (CAKI-1): 0.017 µM | CC50 (CAKI-1; [3]): 24 µM | TGI (CAKI-1; read-out: pTGI (converted)): 3.31 µM | TGI [2]: 11 µM | GI50 (T47D): 0.0355 µM | CC50 (T47D; [3]): 21.4 µM | TGI (T47D; read-out: pTGI (converted)): 2.14 µM

Cc1cc(Cl)ccc1Nc1nc(C(F)(F)F)ccc1C(=O)NCC(=O)N/N=C/c1c(Cl)cccc1Cl
growth at 10 µM [1]: 68.1%

COc1ccc(Cl)cc1Nc1nc(C(F)(F)F)ccc1C(=O)N/N=C/c1ccc(Cl)cc1Cl
growth at 10 µM [1]: 72.1%

O=C(N/N=C/c1ccc(Cl)cc1Cl)c1ccc(C(F)(F)F)nc1Nc1cccc(C(F)(F)F)c1
growth at 10 µM [1]: 66.3%

Cc1ccc(Cl)cc1Nc1nc(C(F)(F)F)ccc1C(=O)N/N=C/c1ccc(Cl)cc1Cl
growth at 10 µM [1]: 62.6%

COc1ccc(Cl)cc1Nc1nc(C(F)(F)F)ccc1C(=O)N/N=C/c1ccncc1
growth at 10 µM [1]: 62.5%

COc1cc(/C=N/NC(=O)c2ccc(C(F)(F)F)nc2Nc2cc(Cl)ccc2C)cc(OC)c1OC
growth at 10 µM [1]: 94%

O=C(O)CCCc1ccc(N(CCCl)CCCl)cc1 [CHLORAMBUCIL]
TGI [2]: 35.5 µM

COc1cc(/C=N/NC(=O)c2ccc(C(F)(F)F)nc2Nc2cccc(C(F)(F)F)c2)ccc1O
growth at 10 µM [1]: 50.1%

Cc1cc(Cl)ccc1Nc1nc(C(F)(F)F)ccc1C(=O)N/N=C/c1ccncc1
growth at 10 µM [1]: 54.2%

Cc1ccc(Cl)cc1Nc1nc(C(F)(F)F)ccc1C(=O)N/N=C/c1ccncc1
growth at 10 µM [1]: 67.9%

Cc1ccc(Cl)cc1Nc1nc(C(F)(F)F)ccc1C(=O)N/N=C/c1c(Cl)cccc1Cl
GI50 (786-0): 0.251 µM | CC50 (786-0; [3]): 3.02 µM | TGI (786-0; read-out: pTGI (converted)): 0.603 µM | growth at 10 µM [1]: -3.82% | GI50 (HCT-116): 0.214 µM | CC50 (HCT-116; [3]): 3.31 µM | TGI (HCT-116; read-out: pTGI (converted)): 0.49 µM | TGI [2]: 6.17 µM | GI50 (HOP-62): 0.251 µM | CC50 (HOP-62; [3]): 5.75 µM | TGI (HOP-62; read-out: pTGI (converted)): 0.776 µM | GI50 (SR): 0.0562 µM | CC50 (SR; [3]): 41.7 µM | TGI (SR; read-out: pTGI (converted)): 2.69 µM

CN(C)c1ccc(/C=N/NC(=O)c2ccc(C(F)(F)F)nc2Nc2cccc(C(F)(F)F)c2)cc1
growth at 10 µM [1]: 60.2%

O=C(N/N=C/c1cccc(O)c1)c1ccc(C(F)(F)F)nc1Nc1cccc(C(F)(F)F)c1
growth at 10 µM [1]: 103%

COc1ccc(Cl)cc1Nc1nc(C(F)(F)F)ccc1C(=O)N/N=C/c1ccc(F)cc1
growth at 10 µM [1]: 36.5%

O=C(N/N=C/c1ccc(Cl)cc1)c1ccc(C(F)(F)F)nc1Nc1cccc(C(F)(F)F)c1
GI50 (HOP-92): 0.0437 µM | CC50 (HOP-92; [3]): 20.9 µM | TGI (HOP-92): 0.589 µM | growth at 10 µM [1]: 9.64% | TGI [2]: 6.61 µM

Cc1ccc(Cl)cc1Nc1nc(C(F)(F)F)ccc1C(=O)N/N=C/c1ccc(Cl)cc1
growth at 10 µM [1]: 0.47% | GI50 [2]: 1.48 µM | TGI [2]: 5.25 µM

Cc1cc(Cl)ccc1Nc1nc(C(F)(F)F)ccc1C(=O)N/N=C/c1ccc(N(C)C)cc1
growth at 10 µM [1]: 23.2% | GI50 [2]: 1.7 µM | TGI [2]: 66.1 µM

Cc1ccc(Cl)cc1Nc1nc(C(F)(F)F)ccc1C(=O)N/N=C/c1ccc(F)cc1
growth at 10 µM [1]: 33%

O=C(N/N=C/c1ccc([N+](=O)[O-])cc1)c1ccc(C(F)(F)F)nc1Nc1cccc(C(F)(F)F)c1
growth at 10 µM [1]: 95.2%

Cc1ccc(Cl)cc1Nc1nc(C(F)(F)F)ccc1C(=O)N/N=C/c1cccnc1
growth at 10 µM [1]: 20.9% | TGI [2]: 12.6 µM | GI50 (SR): 0.0977 µM

COc1ccc(Cl)cc1Nc1nc(C(F)(F)F)ccc1C(=O)N/N=C/c1ccc([N+](=O)[O-])cc1
growth at 10 µM [1]: 0.92% | TGI [2]: 8.71 µM

O=C(N/N=C/c1ccccc1Cl)c1ccc(C(F)(F)F)nc1Nc1cccc(C(F)(F)F)c1
growth at 10 µM [1]: 34.2%

Cc1cc(Cl)ccc1Nc1nc(C(F)(F)F)ccc1C(=O)N/N=C/c1ccccc1Cl
GI50 (A498): < 0.01 µM | CC50 (A498): 17.8 µM | TGI (A498): 2.69 µM | growth at 10 µM [1]: 14.8% | GI50 (OVCAR-3): 0.191 µM | CC50 (OVCAR-3): 8.32 µM | TGI (OVCAR-3): 0.513 µM | TGI [2]: 5.13 µM

COc1cc(/C=N/NC(=O)c2ccc(C(F)(F)F)nc2Nc2ccc(Cl)cc2C)cc(OC)c1OC
growth at 10 µM [1]: 32.3%

O=C(N/N=C/c1c(Cl)cccc1Cl)c1ccc(C(F)(F)F)nc1Nc1cccc(C(F)(F)F)c1
GI50 (A498): 0.191 µM | CC50 (A498): 9.33 µM | TGI (A498): 0.646 µM | GI50 (HOP-92): 0.0447 µM | TGI (HOP-92): 0.417 µM | growth at 10 µM [1]: 5.01% | GI50 (OVCAR-3): 0.191 µM | CC50 (OVCAR-3): 77.6 µM | TGI (OVCAR-3): 0.646 µM | TGI [2]: 10.2 µM

COc1ccc(Cl)cc1Nc1nc(C(F)(F)F)ccc1C(=O)N/N=C/c1cccnc1
growth at 10 µM [1]: 44.7% | GI50 [2]: 2.95 µM | TGI [2]: 79.4 µM

Nc1nc(C(F)(F)F)ccc1C(=O)N/N=C/c1c(Cl)cccc1Cl
growth at 10 µM [1]: 102%

COc1cc(/C=N/NC(=O)c2ccc(C(F)(F)F)nc2Nc2cccc(C(F)(F)F)c2)cc(OC)c1OC
growth at 10 µM [1]: 44.5%

COc1ccc(Cl)cc1Nc1nc(C(F)(F)F)ccc1C(=O)N/N=C/c1cccc(O)c1
growth at 10 µM [1]: 59.1%

O=C(N/N=C/c1c(Cl)cccc1Cl)c1cccnc1Nc1cccc(C(F)(F)F)c1
growth at 10 µM [1]: 37.8% | TGI [2]: 39.8 µM

COc1ccc(Cl)cc1Nc1nc(C(F)(F)F)ccc1C(=O)N/N=C/c1ccc(N(C)C)cc1
growth at 10 µM [1]: 95.6%

COc1ccc(Cl)cc1Nc1nc(C(F)(F)F)ccc1C(=O)N/N=C/c1cc(OC)c(OC)c(OC)c1
growth at 10 µM [1]: 17.6% | TGI [2]: 10.5 µM

Cc1ccc(Cl)cc1Nc1nc(C(F)(F)F)ccc1C(=O)N/N=C/c1ccccc1Cl
growth at 10 µM [1]: 36.2%

O=C(N/N=C/c1ccncc1)c1ccc(C(F)(F)F)nc1Nc1cccc(C(F)(F)F)c1
growth at 10 µM [1]: 10.8% | TGI [2]: 8.71 µM

Cc1cc(Cl)ccc1Nc1nc(C(F)(F)F)ccc1C(=O)N/N=C/c1ccc(Cl)cc1Cl
growth at 10 µM [1]: 60.1%

Cc1cc(Cl)ccc1Nc1nc(C(F)(F)F)ccc1C(=O)N/N=C/c1ccc([N+](=O)[O-])cc1
growth at 10 µM [1]: -7.22% | TGI [2]: 4.68 µM | GI50 (CCRF-CEM): 0.0427 µM | TGI (CCRF-CEM; read-out: pTGI (converted)): 0.0776 µM

O=C(N/N=C/c1c(Cl)cccc1Cl)c1ccccc1Nc1cccc(C(F)(F)F)c1
growth at 10 µM [1]: 90.6%

Cc1cc(Cl)ccc1Nc1nc(C(F)(F)F)ccc1C(=O)N/N=C/c1cccnc1
growth at 10 µM [1]: 47.2%

Cc1ccc(Cl)cc1Nc1nc(C(F)(F)F)ccc1C(=O)N/N=C/c1ccc(N(C)C)cc1
growth at 10 µM [1]: 52.1%

Cc1ccc(Cl)cc1Nc1nc(C(F)(F)F)ccc1C(=O)N/N=C/c1ccc([N+](=O)[O-])cc1
growth at 10 µM [1]: 85.7%

Cc1cc(Cl)ccc1Nc1nc(C(F)(F)F)ccc1C(=O)N/N=C/c1ccc(F)cc1
growth at 10 µM [1]: 6.66% | TGI [2]: 7.08 µM

O=C(N/N=C/c1ccc(F)cc1)c1ccc(C(F)(F)F)nc1Nc1cccc(C(F)(F)F)c1
growth at 10 µM [1]: 7.73% | TGI [2]: 4.47 µM

Cc1cc(Cl)ccc1Nc1nc(C(F)(F)F)ccc1C(=O)N/N=C/c1ccc(Cl)cc1
growth at 10 µM [1]: -7.31% | TGI [2]: 7.59 µM
